# Measurements: PubChem BioAssay (NCI)
#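 Interpolation was linear, between the two tested concentrations surrounding the appropriate level; five concentrations were tested over 48 hours in 96-well plates. TGI is the concentration that stops growth completely.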
# How the values were obtained:
# Assay in all cases: NCI tumour cell line growth inhibition, 48 h
# NCI-H460 lung = tested on: NCI-H460 lung
# A549 NSCLC = tested on: A549 NSCLC
# OVCAR-4 ovarian = tested on: OVCAR-4 ovarian
# UACC-257 melanoma = tested on: UACC-257 melanoma
# MCF7 breast = tested on: MCF7 breast
# RPMI-8226 leukemia = tested on: RPMI-8226 leukemia
# DU-145 prostate = tested on: DU-145 prostate
# T-47D breast = tested on: T-47D breast
# MOLT-4 leukemia = tested on: MOLT-4 leukemia
# OVCAR-3 ovarian = tested on: OVCAR-3 ovarian
# A498 renal = tested on: A498 renal
# U251 CNS = tested on: U251 CNS
# SN12C renal = tested on: SN12C renal
# SK-MEL-2 melanoma = tested on: SK-MEL-2 melanoma
# ACHN renal = tested on: ACHN renal
# OVCAR-5 ovarian = tested on: OVCAR-5 ovarian
# NCI-H23 lung = tested on: NCI-H23 lung
# MDA-N = tested on: MDA-N
# HOP-62 NSCLC = tested on: HOP-62 NSCLC
# LOX IMVI melanoma = tested on: LOX IMVI melanoma
# HCT-15 colon = tested on: HCT-15 colon
# KM12 colon = tested on: KM12 colon
# MDA-MB-435 = tested on: MDA-MB-435
# HT29 colon = tested on: HT29 colon
# EKVX NSCLC = tested on: EKVX NSCLC
# 786-0 renal = tested on: 786-0 renal
# CCRF-CEM leukemia = tested on: CCRF-CEM leukemia
# NCI/ADR-RES ovarian = tested on: NCI/ADR-RES ovarian
# HCT-116 colon = tested on: HCT-116 colon
# OVCAR-8 ovarian = tested on: OVCAR-8 ovarian
# SK-MEL-5 melanoma = tested on: SK-MEL-5 melanoma
# SK-OV-3 ovarian = tested on: SK-OV-3 ovarian
# M14 melanoma = tested on: M14 melanoma
# TK-10 renal = tested on: TK-10 renal
# UO-31 renal = tested on: UO-31 renal
# UACC-62 melanoma = tested on: UACC-62 melanoma
# IGROV1 ovarian = tested on: IGROV1 ovarian
# MALME-3M melanoma = tested on: MALME-3M melanoma
# RXF 393 renal = tested on: RXF 393 renal
# COLO 205 colon = tested on: COLO 205 colon
# SR leukemia = tested on: SR leukemia
# SNB-19 CNS = tested on: SNB-19 CNS
# BT-549 breast = tested on: BT-549 breast
# SK-MEL-28 melanoma = tested on: SK-MEL-28 melanoma
# HS 578T breast = tested on: HS 578T breast
# MDA-MB-231 breast = tested on: MDA-MB-231 breast
# SNB-75 CNS = tested on: SNB-75 CNS
# SF-268 CNS = tested on: SF-268 CNS
# NCI-H522 lung = tested on: NCI-H522 lung
# SF-295 CNS = tested on: SF-295 CNS
# HL-60(TB) leukemia = tested on: HL-60(TB) leukemia
# SW-620 colon = tested on: SW-620 colon
# K-562 leukemia = tested on: K-562 leukemia
# NCI-H226 lung = tested on: NCI-H226 lung
# HCC-2998 colon = tested on: HCC-2998 colon
# PC-3 prostate = tested on: PC-3 prostate
# SF-539 CNS = tested on: SF-539 CNS
# HOP-92 NSCLC = tested on: HOP-92 NSCLC
# CAKI-1 renal = tested on: CAKI-1 renal
compound,measurement,setting,value
O=C(O)c1c(-c2ccccc2)c(=O)[nH]c2ccccc12,TGI,NCI-H460 lung,> 100 µM
same,TGI,A549 NSCLC,> 100 µM
same,TGI,OVCAR-4 ovarian,> 100 µM
same,TGI,UACC-257 melanoma,> 100 µM
same,TGI,MCF7 breast,> 100 µM
same,TGI,RPMI-8226 leukemia,> 100 µM
same,TGI,DU-145 prostate,> 100 µM
same,TGI,T-47D breast,> 100 µM
same,TGI,MOLT-4 leukemia,> 100 µM
same,TGI,OVCAR-3 ovarian,> 100 µM
same,TGI,A498 renal,> 100 µM
same,TGI,U251 CNS,> 100 µM
same,TGI,SN12C renal,> 100 µM
same,TGI,SK-MEL-2 melanoma,> 100 µM
same,TGI,ACHN renal,> 100 µM
same,TGI,OVCAR-5 ovarian,> 100 µM
same,TGI,NCI-H23 lung,> 100 µM
same,TGI,MDA-N,> 100 µM
same,TGI,HOP-62 NSCLC,> 100 µM
same,TGI,LOX IMVI melanoma,> 100 µM
same,TGI,HCT-15 colon,> 100 µM
same,TGI,KM12 colon,> 100 µM
same,TGI,MDA-MB-435,> 100 µM
same,TGI,HT29 colon,> 100 µM
same,TGI,EKVX NSCLC,> 100 µM
same,TGI,786-0 renal,> 100 µM
same,TGI,CCRF-CEM leukemia,> 100 µM
same,TGI,NCI/ADR-RES ovarian,> 100 µM
same,TGI,HCT-116 colon,> 100 µM
same,TGI,OVCAR-8 ovarian,> 100 µM
same,TGI,SK-MEL-5 melanoma,> 100 µM
same,TGI,SK-OV-3 ovarian,> 100 µM
same,TGI,M14 melanoma,> 100 µM
same,TGI,TK-10 renal,> 100 µM
same,TGI,UO-31 renal,> 100 µM
same,TGI,UACC-62 melanoma,> 100 µM
same,TGI,IGROV1 ovarian,> 100 µM
same,TGI,MALME-3M melanoma,> 100 µM
same,TGI,RXF 393 renal,> 100 µM
same,TGI,COLO 205 colon,> 100 µM
same,TGI,SR leukemia,> 100 µM
same,TGI,SNB-19 CNS,> 100 µM
same,TGI,BT-549 breast,> 100 µM
same,TGI,SK-MEL-28 melanoma,> 100 µM
same,TGI,HS 578T breast,> 100 µM
same,TGI,MDA-MB-231 breast,> 100 µM
same,TGI,SNB-75 CNS,> 100 µM
same,TGI,SF-268 CNS,> 100 µM
same,TGI,NCI-H522 lung,> 100 µM
same,TGI,SF-295 CNS,> 100 µM
same,TGI,HL-60(TB) leukemia,> 100 µM
same,TGI,SW-620 colon,> 100 µM
same,TGI,K-562 leukemia,> 100 µM
same,TGI,NCI-H226 lung,> 100 µM
same,TGI,HCC-2998 colon,> 100 µM
same,TGI,PC-3 prostate,> 100 µM
Cc1cn(CCCCCCOC(=O)NC(CCCN=C(N)N)C(=O)O)c(=O)[nH]c1=O (stereo not given),TGI,NCI-H460 lung,> 100 µM
same,TGI,A549 NSCLC,> 100 µM
same,TGI,OVCAR-4 ovarian,> 100 µM
same,TGI,UACC-257 melanoma,> 100 µM
same,TGI,MCF7 breast,> 100 µM
same,TGI,RPMI-8226 leukemia,> 100 µM
same,TGI,SF-539 CNS,> 100 µM
same,TGI,HOP-92 NSCLC,> 100 µM
same,TGI,DU-145 prostate,> 100 µM
same,TGI,T-47D breast,> 100 µM
same,TGI,MOLT-4 leukemia,> 100 µM
same,TGI,OVCAR-3 ovarian,> 100 µM
same,TGI,A498 renal,> 100 µM
same,TGI,U251 CNS,> 100 µM
same,TGI,SN12C renal,> 100 µM
same,TGI,SK-MEL-2 melanoma,> 100 µM
same,TGI,ACHN renal,> 100 µM
same,TGI,OVCAR-5 ovarian,> 100 µM
same,TGI,NCI-H23 lung,> 100 µM
same,TGI,MDA-N,> 100 µM
same,TGI,HOP-62 NSCLC,> 100 µM
same,TGI,LOX IMVI melanoma,> 100 µM
same,TGI,HCT-15 colon,> 100 µM
same,TGI,KM12 colon,> 100 µM
same,TGI,MDA-MB-435,> 100 µM
same,TGI,HT29 colon,> 100 µM
same,TGI,EKVX NSCLC,> 100 µM
same,TGI,786-0 renal,> 100 µM
same,TGI,CCRF-CEM leukemia,> 100 µM
same,TGI,NCI/ADR-RES ovarian,> 100 µM
same,TGI,HCT-116 colon,> 100 µM
same,TGI,OVCAR-8 ovarian,> 100 µM
same,TGI,SK-OV-3 ovarian,> 100 µM
same,TGI,M14 melanoma,> 100 µM
same,TGI,TK-10 renal,> 100 µM
same,TGI,UO-31 renal,> 100 µM
same,TGI,UACC-62 melanoma,> 100 µM
same,TGI,IGROV1 ovarian,> 100 µM
same,TGI,RXF 393 renal,> 100 µM
same,TGI,CAKI-1 renal,> 100 µM
same,TGI,COLO 205 colon,> 100 µM
same,TGI,SR leukemia,> 100 µM
same,TGI,SNB-19 CNS,> 100 µM
same,TGI,BT-549 breast,> 100 µM
same,TGI,SK-MEL-28 melanoma,> 100 µM
same,TGI,HS 578T breast,> 100 µM
same,TGI,MDA-MB-231 breast,> 100 µM
same,TGI,SNB-75 CNS,> 100 µM
same,TGI,SF-268 CNS,> 100 µM
same,TGI,SF-295 CNS,> 100 µM
same,TGI,HL-60(TB) leukemia,> 100 µM
same,TGI,SW-620 colon,> 100 µM
same,TGI,K-562 leukemia,> 100 µM
same,TGI,NCI-H226 lung,> 100 µM
same,TGI,HCC-2998 colon,> 100 µM
same,TGI,PC-3 prostate,> 100 µM
O=C(CCN1CCCCC1)Nc1ccc2sc3ccccc3c(=O)c2n1,TGI,NCI-H460 lung,42.1 µM
same,TGI,A549 NSCLC,35.3 µM
same,TGI,OVCAR-4 ovarian,41.9 µM
same,TGI,UACC-257 melanoma,46.3 µM
same,TGI,MCF7 breast,57.5 µM
same,TGI,RPMI-8226 leukemia,24.8 µM
same,TGI,SF-539 CNS,31.6 µM
same,TGI,HOP-92 NSCLC,1.79 µM
same,TGI,DU-145 prostate,46.1 µM
same,TGI,T-47D breast,93.6 µM
same,TGI,MOLT-4 leukemia,18.8 µM
same,TGI,OVCAR-3 ovarian,33.7 µM
same,TGI,U251 CNS,30.3 µM
same,TGI,SN12C renal,52.4 µM
same,TGI,ACHN renal,52.7 µM
same,TGI,OVCAR-5 ovarian,43 µM
same,TGI,MDA-N,28.9 µM
same,TGI,HOP-62 NSCLC,29.8 µM
same,TGI,LOX IMVI melanoma,24.8 µM
same,TGI,HCT-15 colon,46.6 µM
same,TGI,KM12 colon,34 µM
same,TGI,MDA-MB-435,25.8 µM
same,TGI,HT29 colon,> 100 µM
same,TGI,EKVX NSCLC,84 µM
same,TGI,786-0 renal,28.5 µM
same,TGI,CCRF-CEM leukemia,54 µM
same,TGI,NCI/ADR-RES ovarian,73.9 µM
same,TGI,HCT-116 colon,22.9 µM
same,TGI,SK-MEL-5 melanoma,61.9 µM
same,TGI,SK-OV-3 ovarian,48.7 µM
same,TGI,M14 melanoma,27.3 µM
same,TGI,TK-10 renal,46.9 µM
same,TGI,UO-31 renal,22.1 µM
same,TGI,UACC-62 melanoma,30.1 µM
same,TGI,IGROV1 ovarian,31.3 µM
same,TGI,MALME-3M melanoma,43.6 µM
same,TGI,CAKI-1 renal,33.6 µM
same,TGI,COLO 205 colon,24.5 µM
same,TGI,SR leukemia,39 µM
same,TGI,SNB-19 CNS,47.7 µM
same,TGI,BT-549 breast,37.2 µM
same,TGI,SK-MEL-28 melanoma,33.8 µM
same,TGI,HS 578T breast,41.5 µM
same,TGI,MDA-MB-231 breast,44.4 µM
same,TGI,SNB-75 CNS,23 µM
same,TGI,SF-268 CNS,43.3 µM
same,TGI,NCI-H522 lung,25.9 µM
same,TGI,SF-295 CNS,45.7 µM
same,TGI,HL-60(TB) leukemia,19.2 µM
same,TGI,SW-620 colon,33.2 µM
same,TGI,K-562 leukemia,28.6 µM
same,TGI,HCC-2998 colon,30 µM
same,TGI,PC-3 prostate,30.3 µM
